Like-named read-outs stand apart in the source and are kept apart here.
What was measured:
hypertensive patients = test: Study III: patients with high blood pressure but without anxiety or depression; format: in vivo; settings: for outcome in 55 non-responder patients, antihypertensive added to citalopram 20 mg/day: after six weeks, betaloc oral 100 mg/day (40 patients) or captopril 2×12.5 mg/day (15 patients) in addition to citalopram
Protocol: In the test 102 hypertensive patients participated who complained of the following symptoms: attack like headache, dizziness, trembling, tremor, sweating, fear of death, sensation of heat and cold, and gastrointestinal complaints. The patients thought that their complaints were the consequence of panic attacks, but this was not supported by their psychiatric anamnesis in an unambiguous manner.
The patients were orally treated with citalopram in a dose of 5 mg/day on the first week, 10 mg/day on the second week and 20 mg/day on the third week.
From the 55 non-responder patients 40 individuals (39%) received betaloc in an oral dose of 100 mg/day and 15 patients (15%) received captopril in a dose of 2×12.5 mg/day, in addition to the administration of 20 mg/day of citalopram.

hypertonic patients = test: Study I: antihypertensive effect of citalopram in hypertonic patients with panic disorder; format: in vivo; settings: for outcome in remaining 84 patients, antihypertensive added to citalopram 20 mg/day: after 6 weeks, oral metoprolol 2×50 mg/day (64 patients) or captopril 2×12.5 mg/day (20 patients) in addition to citalopram
Protocol: 254 patients participated in the study. All patients were hypertonic. In this group of hypertonics there were 120 patients suffering from panic disorder and agoraphobia, 70 patients suffering from panic disorder with agoraphobia and with depression, and 64 patients suffering from panic disorder with agoraphobia and with social phobia and/or with obsessive compulsive disorder (OCD).
The patients received citalopram in a dose of 5 mg/day on the first week, 10 mg/day on the second week and 20 mg/day on the third and fourth week.
The citalopram treatment of the remaining 84 patients was continued with a weekly oral dosage of 20 mg/day. From said 84 individuals 64 patients were additionally treated orally with metoprolol for 3 weeks in a dose of 2×50 mg/day and 20 patients received captopril in a dose of 2×12.5 mg/day.

[1] = in the course of treatment of depression; cited from earlier work
[2] = tested on: patients having unstable high blood pressure; settings: human, in vivo, po
Protocol: In the study 13 patients having unstable high blood pressure were used who suffered from different anxiety disorders and depression.
Out of these patients 3 suffered from panic disorder, 1 from obsessive compulsive disorder and 9 from panic disorder with depression. On the beginning of treatment with the following antidepressants the patients were normotensive.
The patients were treated orally with 40 mg/day of paroxetine, or 100 mg/day of sertraline, or 20 mg/day of fluoxetine, or 150 mg/day of fluvoxamine. After 6 months 60% of the patients and after a period of 12–30 months 40% of the patients became hypertensive beside the normalization of their psychiatric state.
Thereafter the above mentioned antidepressants were substituted with citalopram. The oral dose of citalopram was 5 mg/day on the first week, 10 mg/day on the second week and 20 mg/day on the third week.

[3] = after 4 weeks treatment, citalopram 5/10/20/20 mg/day, of 254 hypertonic patients
[4] = after three weeks, oral citalopram 5/10/20 mg/day, of 102 hypertensive patients

COCCc1ccc(OCC(O)CNC(C)C)cc1 (centres unmarked) [betaloc]
outcome in 55 non-responder patients, antihypertensive added to citalopram 20 mg/day (hypertensive patients): complete recovery

C[C@H](CS)C(=O)N1CCC[C@H]1C(=O)O [captopril]
outcome in remaining 84 patients, antihypertensive added to citalopram 20 mg/day (hypertonic patients): complete recovery
outcome in 55 non-responder patients, antihypertensive added to citalopram 20 mg/day (hypertensive patients): complete recovery

CN(C)CCCC1(c2ccc(F)cc2)OCc2cc(C#N)ccc21 (centres unmarked) [citalopram, 1-(3-dimethylamino-propyl)-1-(4-fluoro-phenyl)-1,3-dihydro-5-isobenzofurance-carbonitrile]
patients with complete recovery (became normotensive, symptoms of anxiety and affective disorders disappeared) (hypertonic patients; [3]): 170 patients
share of patients with complete recovery (became normotensive) (hypertonic patients; [3]): 67%
patients recovered and became normotensive (hypertensive patients; [4]): 47 patients
share of patients recovered and became normotensive (hypertensive patients; [4]): 46%
undesired side effect given in information leaflet [1]: hypotension may occur

CNCCC(Oc1ccc(C(F)(F)F)cc1)c1ccccc1 (centres unmarked) [fluoxetine]
patients who became hypertensive [2]: 40%
patients who became hypertensive ([2]; 6 months): 60%

COCCCC/C(=N\OCCN)c1ccc(C(F)(F)F)cc1 [fluvoxamine]
patients who became hypertensive [2]: 40%
patients who became hypertensive ([2]; 6 months): 60%

COCCc1ccc(OCC(O)CNC(C)C)cc1 (centres unmarked) [metoprolol]
outcome in remaining 84 patients, antihypertensive added to citalopram 20 mg/day (hypertonic patients): complete recovery

Fc1ccc([C@@H]2CCNC[C@H]2COc2ccc3c(c2)OCO3)cc1 [paroxetine]
patients who became hypertensive [2]: 40%
patients who became hypertensive ([2]; 6 months): 60%

CN[C@H]1CC[C@@H](c2ccc(Cl)c(Cl)c2)c2ccccc21 [sertraline]
patients who became hypertensive [2]: 40%
patients who became hypertensive ([2]; 6 months): 60%
